Measured values reported in patent US9221754B2, “Crystalline forms of zofenopril calcium” (Generics [UK] Limited, priority 2008, dated 2015).
Counter-ions that a name gives are not always drawn.

Experiments:
Assay type in all cases: physicochemical
[1] = Pellet compression with an Infrared spectrophotometer press machine; conditions: pressure exerted ~10 Tons, calcium salt
[2] = Hygroscopicity of the crystalline forms
[3] = Mechanical stress during particle size reduction (milling using a multimill); conditions: calcium salt
[4] = Slurry in water (10% w/v) exposed to 50-55° C. for six hours; conditions: calcium salt
[5] = Polymorphic purity under dosage form preparation conditions (micronization or wet granulation)

| Compound | polymorphic stability to compression, by XRPD, DSC and TGA [1] | hygroscopicity [2] | polymorphic stability to mechanical stress (milling), by XRPD, DSC and TGA [3] | polymorphic stability of the water slurry, by XRPD, DSC and TGA [4] | change in polymorphic purity during dosage form preparation [5] |
| --- | --- | --- | --- | --- | --- |
| C[C@H](CSC(=O)c1ccccc1)C(=O)N1C[C@@H](Sc2ccccc2)C[C@H]1C(=O)O [Polymorph E, (4S)-1-[(2S)-3-(benzoylthio)-2-methylpropionyl]-4-(phenylthio)-L-proline calcium salt] | identical to that before compression | non-hygroscopic | retained its polymorphic composition | no change |  |
| C[C@H](CSC(=O)c1ccccc1)C(=O)N1C[C@@H](Sc2ccccc2)C[C@H]1C(=O)O [form C, (4S)-1-[(2S)-3-(benzoylthio)-2-methylpropionyl]-4-(phenylthio)-L-proline calcium salt] |  |  |  |  | very slight changes in polymorphic purity |
| C[C@H](CSC(=O)c1ccccc1)C(=O)N1C[C@@H](Sc2ccccc2)C[C@H]1C(=O)O [form F, (4S)-1-[(2S)-3-(benzoylthio)-2-methylpropionyl]-4-(phenylthio)-L-proline calcium salt] |  | non-hygroscopic |  |  |  |
